From publication PMC5040747, “Preparation and Evaluation of a Novel Class of Amphiphilic Amines as Antitumor Agents and Nanocarriers for Bioactive Molecules” (Pharmaceutical Research, 2016)
Like-named read-outs stand apart in the source and are kept apart here.

Columns and labels:
SH-SY5Y cells = assay: Caspase activation (western blot, fluorimetric assay); format: cell-based
Protocol: Cells with or without RCn treatment were washed with PBS and lysed on ice for 30 min in lysis buffer containing protease and phosphatase inhibitors. Protein concentrations were determined with the Bio-Rad protein assay kit. 50 μg of total protein was separated on 12% SDS-PAGE at 100 V for 1 h and then transferred onto a nitrocellulose membrane using a wet blotting apparatus (Bio-Rad Laboratories) at 20 V overnight. Proteins were detected by enhanced chemiluminescence detection reagents (Amersham Biosciences). The antibodies used for immunoblotting were: caspases 3, 8, 9, and PARP were diluted 1:100 in blocking reagent (Cell Signaling Technology). The exposure time was the same for all the antibodies. Blots were stripped and reprobed with anti-β-tubulin diluted 1:10,000 in blocking reagent (Santacruz Biotechnology) used as the loading control.
Detection of caspase activity was evaluated by ApoFluor Green Apoptosis Detection kits specific for: caspase-1 and caspase-4; caspase-2, caspase-3 and caspase-7; caspase-6, caspase-8, caspase-9, caspase-10, and caspase-13 (MP Biochemicals), according to the manufacturer’s instructions. […] After 1 h incubation samples were washed and analyzed by flow cytometry (FACScan, Becton Dickinson) equipped with a 15-mW argon ion laser at 488 nm ([16]).

[1] = Maximum tolerated dose in mice; details: female, mouse, in vivo; single intravenous injection, non-tumor bearing athymic nude mice
Protocol: To determine the MTD, a standard assay dose escalation study was performed. Non-tumor bearing, female, athymic nude mice were injected once with RC16 by the tail vein starting with 0.5 mg/kg. The doses were escalated by 0.25 mg/kg until MTD was achieved. Following convention, each dose was tested on a cohort of 5 mice in individual independent experiments. MTD was defined as the highest dose that could be given resulting in no drug-related moribund state or death or body weight loss ≥ 20% in the first 7 days. Other signs of toxicity such as unusual mouse behavior, lack of movement and poor posture were also monitored. Mice were weighed and observed 3 times per week for any signs of toxicity.

[2] = system: Human Gingival Fibroblasts; assay: MTT cell proliferation assay, normal fibroblasts; format: cell-based; details: Fibroblast, normal cells, read-out: Cell killing activity IC50
Protocol: (§1) Cells were plated in 96-well tissue culture plates at a density of 1 × 10^3 cells/well, allowed to attach 24 h, and then left untreated or treated with growth medium containing different concentrations of the tested RCn compounds previously dissolved in PBS. After different time periods the cell vitality was determined by MTT assay according to the manufacture’s instruction (Promega). Results are reported as the micromolar concentration of RCn reducing cell survival to 50% (IC50).

143.98.2 = assay: MTT cell proliferation assay, 143.98.2; format: cell-based; details: Homo sapiens, 143.98.2, Osteosarcoma, read-out: Cell killing activity IC50
Protocol: as §1

[3] = Pilot pharmacokinetic study in mice; format: in vivo, mouse; details: for AUC(0-t): read-out: AUC0-24
Protocol: To establish a standard assay for RC16 detection and the half-life of RC16 in murine blood, a basic pilot pharmacokinetic study was performed using 1 animal per timepoint. Non-tumor bearing, female, athymic nude mice were treated with RC16 by i.v. or p.o.at doses of 1 mg/kg and 2 mg/kg, respectively. At 2, 4, 6, 12, 24 and 48 h post RC16 administration, a single mouse was anesthetized in an induction chamber with 5.0% isoflurane and an O2 flow rate of 0.8 L/min. Each mouse was transferred to a nose cone supplying 5.0% isoflurane with a O2 flow rate of 0.8 L/min. After confirming sedation by testing hind footpads, each mouse was subjected to exsanguination by cardiac puncture. Blood samples were collected in BD Microtainers (BD, Franklin Lakes, NJ). Plasma was separated by centrifugation at 2000×g for 10 min at 4°C and stored at −80°C until analysis. The RC16 concentration in plasma was determined by liquid LC-MS/MS.
Chromatographic separation was achieved using a Thermo Scientific Accela UHPLC system with HTS PAL autosampler and an Agilent ZORBAX Extend C18 column (50 × 2.1 mm I.D, 3.5 μm particle size) with a C18 guard cartridge maintained at 35°C. A 6.0 min linear gradient program with water/0.3% formic acid as mobile phase A and acetonitrile/0.3% formic acid as mobile phase B at a constant flow rate of 400 μL/min was applied for elution: 0.0 min 25% B, 1.0 min 25% B, 3.0 min 95% B, 4.5 min 95% B, 4.6 min 25% B and 6.0 min 25% B. The autosampler sample draw was set to 4°C, and a divert valve was used (0.0–2.0 min) to prevent early eluting compounds from entering the MS. Selective reaction monitoring with unit resolution was used for MS detection under positive mode. Transition channels from the protonated molecular ion to selected product ion were 377.33 > 153.15 for RC16 and 251.20 > 153.15 for internal standard RC7, respectively. Parameters optimized with a direct infusion of analyte and IS using a syringe pump were as follows: spray voltage, 5000 V; sheath gas and auxiliary gas, 25 and 15 (arbitrary unit), respectively; capillary temperature, 325°C; collision gas pressure, 1.5mTorr and skimmer offset, 10 eV. Tube lens offset was 100 eV for both RC16 and RC7, respectively. Scan time was 0.03 s. Collision energies were 40 eV for RC16 and 33 eV for RC7. Thermo Scientific LCQuan software was employed for system control and data processing.

SK-N-AS = assay: MTT cell proliferation assay, SK-N-AS; format: cell-based; details: Homo sapiens, Neuroblastoma, read-out: Cell killing activity IC50
Protocol: as §1

[4] = system: adult tumor cell lines (A549, MDA-MB-231, WiDr); assay: MTT cell killing, adult tumor cell lines (summary); format: cell-based; details: Homo sapiens, summary of Table II
Protocol: as §1

With CCCCCCCCCCCCCCC1CN2CCCN3CCCCCC132 (stereo not shown) [RC16, 2-tetradecyl-4,8-diazatricyclo[6.5.0.0^1,^4]tridecane] the “Caspase activation, fluorimetric assay (caspases 1, 2, 3, 6, 8, 9, 10, 13)” value (SH-SY5Y cells; 5 μM RC16, 1-24 h) was “all the above caspases were activated already at 4 h”, the “Caspase activation, western blot” value (SH-SY5Y cells; 5 μM RC16, 2-36 h) was “activation of caspases 3, 8 and 9” and the MTD at 7 days [1] was 4 mg/kg. It also gave an IC50 ([2]; 24 h) of 11.8 µM, an IC50 ([2]; 48 h) of 10.5 µM and an IC50 (143.98.2; 24 h) of 0.5 µM. The IC50 (143.98.2; 48 h) was 0.32 µM, the half-life ([3]; female, athymic nude, mouse, plasma, iv, 1 mg/kg i.v., nude mice, read-out: Half-life (converted)) was 5.4 h and the bioavailability ([3]; female, athymic nude, mouse, plasma, po, 2 mg/kg, estimated from pilot pharmacokinetic data) was about 6%. It also gave a Cmax ([3]; female, athymic nude, mouse, plasma, 2 mg/kg oral, at 4 h, nude mice, read-out: Maximum observed plasma concentration (Cmax)) of 12.5 ng/mL, a half-life ([3]; female, athymic nude, mouse, plasma, 2 mg/kg oral, non-compartmental analysis, nude mice, read-out: Apparent half-life (converted)) of 5.2 h and an AUC(0-t) ([3]; female, athymic nude, mouse, plasma, IV, 1 mg/kg, nude mice) of 1390 ng·h/mL. For the same compound, the Cmax ([3]; female, athymic nude, mouse, plasma, IV, 1 mg/kg, nude mice, read-out: Cmax) was 153 ng/mL, the AUC(0-t) ([3]; female, athymic nude, mouse, plasma, PO, 2 mg/kg, nude mice) was 160 ng·h/mL and the concentration at 2 h ([3]; female, athymic nude, plasma, intravenous, 1 mg/kg i.v., 2 h, nude mice, 1 mouse per time point) was 153 ng/mL. The concentration at 24 h ([3]; female, athymic nude, plasma, intravenous, 1 mg/kg i.v., nude mice, 1 mouse per time point) was 11.4 ng/mL, the concentration at 24 h ([3]; female, athymic nude, plasma, 2 mg/kg oral, nude mice, 1 mouse per time point) was 0.5 ng/mL and the concentration at 48 h ([3]; female, athymic nude, plasma, 2 mg/kg oral, 48 h, nude mice, 1 mouse per time point) was 4.6 ng/mL. It also gave an Achieved plasma concentrations ([3]; i.v. dose of 1 mg/kg) of 150 to 200 ng/mL, an IC50 (SK-N-AS; 24 h) of 0.88 µM and an IC50 (SK-N-AS; 48 h) of 0.67 µM. For the same compound, the IC50 [4] was 1 to 10 µM.
